Measurements from patent US11419902B2, “Compositions comprising bacterial strains” (4D Pharma Research Limited, priority 2018, dated 2022).

Tests used:
Format in all cases: cell-based
[1] = system: Occludin, Villin, TJP1 and TJP2; assay: Tight junction protein gene expression in HT29-mtx cells (qRT-PCR); conditions: 2 h incubation
From the text: The ability of MRx0029 to cause any intestinal barrier dysfunction was investigated. HT29-mtx epithelial, mucin-producing cell monolayers were used as an in vitro model to evaluate gut barrier disruption and immune stimulation following treatment with MRx0029.
Total RNA was extracted using the RNeasy mini kit (Qiagen, Manchester, JUK) according to the manufacturer's instructions, and the RNA concentration determined by absorbance at 260/280 nm using a spectrophotometer (nano-Drop ND-1000; Thermo Scientific, Wilmington, Del.). For mRNA expression analysis, cDNA was prepared from total RNA using the High-Capacity cDNA reverse transcription kit (Applied Biosystems, UK) according to the manufacturer's instructions. The reverse transcription reactions were performed in a Thermo cycler (Biometra, Germany) at 25° C. for 10 min, 37° C. for 120 min, and 85° C. for 5 min, hold on at 4° C. Resulting cDNA was amplified in duplicates by the SYBR-Green PCR assay, and products were detected on QuantStudio 6 flex real-time PCR machine (Applied Biosystems, UK) using a standardised profile (initial denaturation of 95° C. for 10 minutes, followed by 40 cycles of 15 seconds of denaturation at 95° C. and 60 seconds of annealing/extension at 60/65° C., depending on the primers. A dissociation stage was added after the 40 cycles to generate a melting curve. Analysis was performed using the Applied Biosystems QuantStudio Real-Time PCR Software v1.2.
RNA was isolated and Quantitative RT-PCR (qRT-PCR) analysis was performed to characterize the changes in gene expression of tight junction proteins during incubation with MRx0029. The administration of MRx0029 enhanced Occludin, Villin, Tight Junction Protein 1 and 2 (respectively TJP1 and TJP2) mRNA expression after 2 h incubation (FIG. 14B).

β3Tubulin = β3Tubulin expression in SH-SY5Y cells (immunostaining, immunoblotting); conditions: undifferentiated SH-SY5Y cells, 10% bacterial supernatant 24 h, vs untreated cells
Experimental: Cells were seeded onto 8-well chamber slides (Marienfeld Laboratory Glassware) at 5×10^4 cells/well overnight and were treated with 10% bacterial supernatant for 24 h. For differentiation, cells were treated with 10 nM RA for 5 days before treating with cell-free bacterial supernatant for 24 h.
Afterwards, the cells were fixed with 4% paraformaldehyde in PBS for 20 minutes at room temperature (RT). Fixed cells were washed with PBS, and permeabilized with 1% Triton X-100 in PBS for 10 minutes. After washing with PBS, the slides were incubated with blocking buffer (4% BSA/PBS) for 1 h at RT before adding anti-MAP2 antibody or β3-tubulin (sc-74421 and sc-80005 respectively, Santa Cruz Biotechnology Inc) diluted in 1% BSA/PBS for 12 h at 4° C. They were then washed twice with PBS, followed by incubation with Alexa Flour 488 conjugated anti-mouse (Molecular Probes Inc) and Alexa Flour 594 conjugated Phalloidin (ab176757, Abcam) for 1 h at RT. […]
(§1) SH-SY5Y cells cultured under the indicated conditions described above, treated with MRx0029 for 24 h and then lysed in RIPA buffer containing cocktail of protease inhibitors (Roche Diagnostics, UK). […] The blots were then incubated with the appropriate horseradish peroxidase (HRP)-conjugated secondary antibody, and proteins were detected by chemiluminescence detection kit (Pierce Biotechnology, Rockford, Ill.). […]

[2] = system: HT29 colorectal cancer cell line; assay: Clonogenic survival of HT29 cell line; conditions: HT29, relative to both negative controls (cell line only, and YCFA+ +DMSO)
Experimental: Cells were trypsinized and 200 cells/well were seeded in 12-well plates. After 48 h cells were treated with the appropriate drugs in absence (YCFA+) or presence of 10% bacterial supernatant and were re-fed every three days. On day 21 after seeding, cells were fixed in ice-cold methanol and stained with Crystal Violet blue. […] were counted and survival fraction was calculated as number of colonies divided by the number of plated cells (plating efficiency) of treated divided by the plating efficiency of control.
The effects of the following treatments were assessed on the HT29 colorectal cancer cell line (V600E oncogenic mutation in BRAF): (1) MRx0029; (2) Vemurafenib (VEMU) in YFCA+ medium; (3) VEMU and MRx0029; (4) Azacytidine-C (Aza-c) in YCFA+ medium; (5) Aza-c and MRx0029; (6) VEMU, Aza-c and MRx0029.

GPR109a = GPR109a RNA expression in differentiated Caco-2 cells (qPCR)
MAP2 = MAP2 expression in SH-SY5Y cells (qPCR, immunostaining, immunoblotting); conditions: undifferentiated SH-SY5Y cells, 10% bacterial supernatant, vs untreated cells
Experimental: SH-SY5Y were plated in 10 cm petri dishes a density of 2×10^6 cells. After 24 h cells were treated in differentiation medium (growth medium containing 1% FBS without RA) with 10% bacteria supernatants or YCFA+, 10 uM RA, 200 uM hexanoic acid or 200 uM valproic acid, for 17 hrs. There after representative images were taken using phase contrast EVOS XL core microscope at 40×10.65 magnification. Cells were collected, and total RNA was isolated according to RNeasy mini kit protocol (Qiagen). cDNAs were made using the high capacity cDNA reverse transcription kit (Applied Biosystems). Gene expression was measured using qPCR. GAPDH was used as internal control. Fold change was calculated according to the 2^(−ΔΔct) method.
Cells were seeded onto 8-well chamber slides (Marienfeld Laboratory Glassware) at 5×10^4 cells/well overnight and were treated with 10% bacterial supernatant for 24 h. […]
as §1

Megasphaera massiliensis MRx0029 was tested, and the “Occludin mRNA expression” value [1] was “enhanced”, the “TJP1 mRNA expression” value [1] was “enhanced” and the “TJP2 mRNA expression” value [1] was “enhanced”. For the same substance, the “Villin mRNA expression” value [1] was “enhanced”, the “expression of β3Tubulin” value (β3Tubulin) was “increases the expression of β3Tubulin” and the clonogenic survival [2] was “decreased clonogenic survival”. For the same substance, the “expression of GPR109a RNA with PMA” value (GPR109a; PMA plus supernatant vs PMA alone (or PMA in YCFA+ medium)) was “greater expression of GPR109a RNA”, the “expression of GPR109a” value (GPR109a; without PMA) was “increased expression of GPR109a” and the “expression of MAP2” value (MAP2) was “significantly increased the expression of MAP2”.
